Patent US20190166843A1, “Pesticidal Active Mixtures Comprising Isoxazoline Compounds I” (BASF SE, priority 2008, published 2019)

Assays:
[1] = system: Boll Weevil (Anthonomus grandis); assay: Test B.2 Control of boll weevil, insect diet with eggs, 24-well plates; assay type: in vivo; settings: 5 days
Excerpt: (§1) Synergism can be described as an interaction where the combined effect of two or more compounds is greater than the sum of the individual effects of each of the compounds. The presence of a synergistic effect in terms of percent control, between two mixing partners (X and Y) can be calculated using the Colby equation (Colby, S. R., 1967, Calculating Synergistic and Antagonistic Responses in Herbicide Combinations, Weeds, 15, 20-22):
(§2) When the observed combined control effect is greater than the expected combined control effect (E), then the combined effect is synergistic.
For evaluating control of boll weevil (Anthonomus grandis) the test unit consisted of 24-well-microtiter plates containing an insect diet and 20-30 A. grandis eggs. The compounds or mixtures were formulated using a solution containing 75 wt % water and 25 wt % DMSO. Different concentrations of formulated compounds or mixtures were sprayed onto the insect diet at 20 μl, using a custom built micro atomizer, at two replications.
For experimental mixtures in these tests identical volumes of both mixing partners at the desired concentrations respectively, were mixed together.
After application, microtiter plates were incubated at 23±1° C., 50±5% RH for 5 days. Egg and larval mortality was then visually assessed.

[2] = system: Green Peach Aphid (Myzus persicae); assay: Test B.1 Control of green peach aphid through systemic means, artificial diet under membrane, 96-well plates; assay type: in vivo; settings: 3 days
Excerpt: as §1, §2
For evaluating control of green peach aphid (Myzus persicae) through systemic means the test unit consisted of 96-well-microtiter plates containing liquid artificial diet under an artificial membrane.
The compounds or mixtures were formulated using a solution containing 75 wt % water and 25 wt % DMSO. Different concentrations of formulated compounds or mixtures were pipetted into the aphid diet, using a custom built pipetter, at two replications. For experimental mixtures in these tests identical volumes of both mixing partners at the desired concentrations respectively, were mixed together.
After application, 5-8 adult aphids were placed on the artificial membrane inside the microtiter plate wells. The aphids were then allowed to suck on the treated aphid diet and incubated at 23±1° C., 50+5% RH for 3 days. Aphid mortality and fecundity was then visually assessed.

[3] = C.I.240 alone at 0.08 ppm (0 + 0.08)
[4] = compound II alone at 0.4 ppm (0.4 + 0)

## N#CCNC(=O)c1cnccc1C(F)(F)F [Flonicamid, flonicamid]
[1]; compound II alone at 4 ppm (4 + 0)
  Average Control %: 0%

## Cc1cc(C2=NOC(c3cc(Cl)cc(Cl)c3)(C(F)(F)F)C2)ccc1C(=O)NCC(=O)NCC(F)(F)F (stereo not drawn) [C.I.240]
[2]; [3]
  Average Control %: 0%
[2]; C.I.240 alone at 2 ppm (0 + 2)
  Average Control %: 0%
[1]; [3]
  Average Control %: 0%
[1]; C.I.240 alone at 0.4 ppm (0 + 0.4)
  Average Control %: 50%

## CC1(C)C(C=C(Cl)Cl)C1C(=O)OC(C#N)c1cccc(Oc2ccccc2)c1 (stereo not drawn) [Alpha-Cypermethrin, alpha-cypermethrin]
[1]; compound II alone at 0.08 ppm (0.08 + 0)
  Average Control %: 0%

## CN1COCN(Cc2cnc(Cl)s2)/C1=N\[N+](=O)[O-] [Thiamethoxam, thiamethoxam]
[2]; [4]
  Average Control %: 25%

## abamectin
[1]; compound II alone at 0.016 ppm (0.016 + 0)
  Average Control %: 50%

## O=[N+]([O-])NC1=NCCN1Cc1ccc(Cl)nc1 [Imidacloprid, imidacloprid]
[2]; [4]
  Average Control %: 0%
